Assay results published in PubChem BioAssay AID1963982 (Molecular Pharmacology Branch, DTP, NCI, 2024).

System: 313798-341-R-J2-PDC spheroids, viability
Assay: Anticancer human tumor 313798-341-R-J2-PDC patient-derived cervical squamous cell carcinoma cell line growth inhibition [PI3K]
Conditions: spheroids with HUVEC and MSC; for viability, T/C: stronger effect = lower value
Outline: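 Spheroid viability read-out. Co-cultures contained the tumor line plus HUVEC and human MSCs. Each agent was paired with a PI3K inhibitor (inavolisib, alpelisib, duvelisib, copanlisib) across half-log dilutions starting at clinical Cmax, or at 10 microM when Cmax was unknown.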

[1] = curve of first compound, second compound 0.0316 µM
[2] = curve of first compound, second compound 0.1 µM
[3] = curve of first compound, second compound 0.316 µM
[4] = curve of first compound, second compound 1 µM
[5] = curve of first compound, second compound 3.16 µM
[6] = curve of first compound, second compound 10 µM
[7] = second compound 0.0316 µM, first compound 0.00316 µM
[8] = second compound 0.0316 µM, first compound 0.01 µM
[9] = second compound 0.0316 µM, first compound 0.0316 µM
[10] = second compound 0.0316 µM, first compound 0.1 µM
[11] = second compound 0.1 µM, first compound 0.00316 µM
[12] = second compound 0.1 µM, first compound 0.01 µM
[13] = second compound 0.1 µM, first compound 0.0316 µM
[14] = second compound 0.1 µM, first compound 0.1 µM
[15] = second compound 0.316 µM, first compound 0.00316 µM
[16] = second compound 0.316 µM, first compound 0.01 µM
[17] = second compound 0.316 µM, first compound 0.0316 µM
[18] = second compound 0.316 µM, first compound 0.1 µM
[19] = second compound 1 µM, first compound 0.00316 µM
[20] = second compound 1 µM, first compound 0.01 µM
[21] = second compound 1 µM, first compound 0.0316 µM
[22] = second compound 1 µM, first compound 0.1 µM
[23] = second compound 3.16 µM, first compound 0.00316 µM
[24] = second compound 3.16 µM, first compound 0.01 µM
[25] = second compound 3.16 µM, first compound 0.0316 µM
[26] = second compound 3.16 µM, first compound 0.1 µM
[27] = second compound 10 µM, first compound 0.00316 µM
[28] = second compound 10 µM, first compound 0.01 µM
[29] = second compound 10 µM, first compound 0.0316 µM
[30] = second compound 10 µM, first compound 0.1 µM
[31] = second compound 0.0316 µM, first compound 0.316 µM
[32] = second compound 0.0316 µM, first compound 1 µM
[33] = second compound 0.1 µM, first compound 0.316 µM
[34] = second compound 0.1 µM, first compound 1 µM
[35] = second compound 0.316 µM, first compound 0.316 µM
[36] = second compound 0.316 µM, first compound 1 µM
[37] = second compound 1 µM, first compound 0.316 µM
[38] = second compound 1 µM, first compound 1 µM
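Further: spheroids exposed to compounds for seven days.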
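Wherever viability, T/C is given: 100% = DMSO vehicle control viability.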

Cn1ncnc1[C@H]1c2n[nH]c(=O)c3cc(F)cc(c23)N[C@@H]1c1ccc(F)cc1 + Cc1nc(NC(=O)N2CCCC2C(N)=O)sc1-c1ccnc(C(C)(C)C(F)(F)F)c1
IC50 [1]: > 100 nM | IC50 [2]: > 100 nM | IC50 [3]: > 100 nM | IC50 [4]: > 100 nM | IC50 [5]: > 100 nM | IC50 [6]: < 0.316 nM | viability, T/C (second compound 0.0316 µM, first compound 0.000316 µM): 112% | viability, T/C (second compound 0.0316 µM, first compound 0.001 µM): 90% | viability, T/C [7]: 97.6% | viability, T/C [8]: 96.1% | viability, T/C [9]: 93.9% | viability, T/C [10]: 95.7% | viability, T/C (second compound 0.1 µM, first compound 0.000316 µM): 98.7% | viability, T/C (second compound 0.1 µM, first compound 0.001 µM): 103% | viability, T/C [11]: 98.2% | viability, T/C [12]: 97.8% | viability, T/C [13]: 92.6% | viability, T/C [14]: 87% | viability, T/C (second compound 0.316 µM, first compound 0.000316 µM): 97.7% | viability, T/C (second compound 0.316 µM, first compound 0.001 µM): 100% | viability, T/C [15]: 110% | viability, T/C [16]: 90.7% | viability, T/C [17]: 102% | viability, T/C [18]: 80.8% | viability, T/C (second compound 1 µM, first compound 0.000316 µM): 92.2% | viability, T/C (second compound 1 µM, first compound 0.001 µM): 86.3% | viability, T/C [19]: 82.9% | viability, T/C [20]: 72.5% | viability, T/C [21]: 79.1% | viability, T/C [22]: 71.5% | viability, T/C (second compound 3.16 µM, first compound 0.000316 µM): 59.6% | viability, T/C (second compound 3.16 µM, first compound 0.001 µM): 61% | viability, T/C [23]: 59% | viability, T/C [24]: 54.9% | viability, T/C [25]: 59.6% | viability, T/C [26]: 49.4% | viability, T/C (second compound 10 µM, first compound 0.000316 µM): 35.9% | viability, T/C (second compound 10 µM, first compound 0.001 µM): 36.8% | viability, T/C [27]: 38.2% | viability, T/C [28]: 34.2% | viability, T/C [29]: 33.2% | viability, T/C [30]: 28.3%

C#Cc1c(F)ccc2cc(O)cc(-c3ncc4c(N5CC6CCC(C5)N6)nc(OCC56CCCN5CC(F)C6)nc4c3F)c12 (stereo not drawn)
viability, T/C (compound 0.0316 µM): 102% [middle of 4 runs] | viability, T/C (compound 0.1 µM): 105% [middle of 4 runs] | viability, T/C (compound 0.316 µM): 108% [middle of 4 runs] | viability, T/C (compound 1 µM): 98.5% [middle of 4 runs] | viability, T/C (compound 3.16 µM): 106% [middle of 4 runs] | viability, T/C (compound 10 µM): 95.2% [middle of 4 runs] | IC50 (curve of compound): > 10000 nM

CCN1CCN(Cc2ccc(Nc3ncc(F)c(-c4cc(F)c5nc(C)n(C(C)C)c5c4)n3)nc2)CC1 + CC(Nc1ncnc2nc[nH]c12)c1cc2cccc(Cl)c2c(=O)n1-c1ccccc1
IC50 [1]: > 1000 nM | IC50 [2]: > 1000 nM | IC50 [3]: > 1000 nM | IC50 [4]: > 1000 nM | IC50 [5]: > 1000 nM | IC50 [6]: > 1000 nM | viability, T/C [7]: 98.9% | viability, T/C [8]: 98.3% | viability, T/C [9]: 114% | viability, T/C [10]: 114% | viability, T/C [31]: 96% | viability, T/C [32]: 123% | viability, T/C [11]: 105% | viability, T/C [12]: 110% | viability, T/C [13]: 103% | viability, T/C [14]: 113% | viability, T/C [33]: 102% | viability, T/C [34]: 115% | viability, T/C [15]: 94.5% | viability, T/C [16]: 100% | viability, T/C [17]: 92.3% | viability, T/C [18]: 96.9% | viability, T/C [35]: 104% | viability, T/C [36]: 107% | viability, T/C [19]: 104% | viability, T/C [20]: 95.3% | viability, T/C [21]: 99.8% | viability, T/C [22]: 101% | viability, T/C [37]: 104% | viability, T/C [38]: 109% | viability, T/C [23]: 103% | viability, T/C [24]: 94.6% | viability, T/C [25]: 98.1% | viability, T/C [26]: 99.8% | viability, T/C (second compound 3.16 µM, first compound 0.316 µM): 108% | viability, T/C (second compound 3.16 µM, first compound 1 µM): 89.8% | viability, T/C [27]: 100% | viability, T/C [28]: 91.5% | viability, T/C [29]: 83.9% | viability, T/C [30]: 85.8% | viability, T/C (second compound 10 µM, first compound 0.316 µM): 82.4% | viability, T/C (second compound 10 µM, first compound 1 µM): 89.5%

CCCS(=O)(=O)Nc1ccc(F)c(C(=O)c2c[nH]c3ncc(-c4ccc(Cl)cc4)cc23)c1F + CC(Nc1ccc2c(c1)OCCn1cc(N3C(=O)OCC3C(F)F)nc1-2)C(N)=O
IC50 (curve of first compound, second compound 0.00316 µM): 6000 nM | IC50 (curve of first compound, second compound 0.01 µM): 6000 nM | IC50 [1]: 5770 nM | IC50 [2]: 4970 nM | IC50 [3]: 3560 nM | IC50 [4]: 1670 nM | viability, T/C (second compound 0.00316 µM, first compound 0.0316 µM): 90.6% | viability, T/C (second compound 0.00316 µM, first compound 0.1 µM): 98.7% | viability, T/C (second compound 0.00316 µM, first compound 0.316 µM): 88.4% | viability, T/C (second compound 0.00316 µM, first compound 1 µM): 114% | viability, T/C (second compound 0.00316 µM, first compound 3.16 µM): 97.9% | viability, T/C (second compound 0.00316 µM, first compound 10 µM): 11.9% | viability, T/C (second compound 0.01 µM, first compound 0.0316 µM): 99.1% | viability, T/C (second compound 0.01 µM, first compound 0.1 µM): 95.8% | viability, T/C (second compound 0.01 µM, first compound 0.316 µM): 98.7% | viability, T/C (second compound 0.01 µM, first compound 1 µM): 106% | viability, T/C (second compound 0.01 µM, first compound 3.16 µM): 104% | viability, T/C (second compound 0.01 µM, first compound 10 µM): 9.37% | viability, T/C [9]: 107% | viability, T/C [10]: 97.8% | viability, T/C [31]: 97.7% | viability, T/C [32]: 97.7% | viability, T/C (second compound 0.0316 µM, first compound 3.16 µM): 92.7% | viability, T/C (second compound 0.0316 µM, first compound 10 µM): 10.9% | viability, T/C [13]: 104% | viability, T/C [14]: 92.6% | viability, T/C [33]: 84.9% | viability, T/C [34]: 92.6% | viability, T/C (second compound 0.1 µM, first compound 3.16 µM): 76% | viability, T/C (second compound 0.1 µM, first compound 10 µM): 9.75% | viability, T/C [17]: 74.6% | viability, T/C [18]: 82.1% | viability, T/C [35]: 79.7% | viability, T/C [36]: 73.6% | viability, T/C (second compound 0.316 µM, first compound 3.16 µM): 54.9% | viability, T/C (second compound 0.316 µM, first compound 10 µM): 8.5% | viability, T/C [21]: 50.5% | viability, T/C [22]: 59.1% | viability, T/C [37]: 59.5% | viability, T/C [38]: 58% | viability, T/C (second compound 1 µM, first compound 3.16 µM): 41.6% | viability, T/C (second compound 1 µM, first compound 10 µM): 8.44%
